According to patent US20260285846A1, “REV-ERB AGONISTS FOR TH17-MEDIATED INFLAMMATORY DISORDERS” (UNIVERSITY OF FLORID RESEARCH FOUNDATION, iNCORPORATED, priority 2021, published 2026):

molecular target: REV-ERBα LBD (Homo sapiens, UniProt P20393, DEL324-422); assay: biochemical; conditions: FRET assay; 6xHistag-REV-ERBα LBD with FITC-labeled SMRT corepressor peptide; read-out: REVERBα (Agonism of REV-ERBα, EC50)
In short: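 TR-FRET corepressor recruitment: 4 nM His-tagged human REV-ERBα LBD (residues 281-614 Δ324-422, or 381-579), 1 nM Tb-anti-His antibody and 400 nM FITC-SMRT peptide in pH 7.4 phosphate buffer with DTT; ligands in triplicate, 2 h at 4° C. 520/495 nm ratio fitted to sigmoidal dose-response for EC50.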

Sequence of REV-ERBα LBD (P20393 with tags, fused parts or gaps DEL324-422): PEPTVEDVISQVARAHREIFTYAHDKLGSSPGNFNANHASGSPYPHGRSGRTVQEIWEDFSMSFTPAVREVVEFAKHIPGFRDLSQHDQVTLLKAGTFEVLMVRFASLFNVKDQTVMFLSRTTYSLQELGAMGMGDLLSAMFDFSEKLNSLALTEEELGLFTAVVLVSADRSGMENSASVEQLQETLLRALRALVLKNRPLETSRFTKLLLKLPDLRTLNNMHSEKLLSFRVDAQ
Sequence of REV-ERBα LBD (Q9Y618 2335-2356 partner limits assumed): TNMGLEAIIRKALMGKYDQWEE

Q: For `N#Cc1cccc(C(F)(F)F)c1-c1nc2c(cc1F)c([C@H](NS(=O)(=O)C1CC1)C(F)F)cn2C1CCC1` [Compound 158, N-((1S)-1-(6-(2-cyano-6-(trifluoromethyl)phenyl)-1-cyclobutyl-5-fluoro-1H-pyrrolo[2,3-b]pyridin-3-yl)-2,2-difluoroethyl)cyclopropanesulfonamide], which EC50 is on record?
A: The EC50 was under 100 nM.

Q: How did the EC50 turn out when `CN(C)S(=O)(=O)N[C@@H](c1cn(CC(C)(C)C)c2cc(-c3ccccc3C(F)(F)F)ccc12)C(F)F` [Compound 21] was run?
A: The EC50 was under 100 nM.

Q: How did the EC50 turn out when `Cc1ncc(F)cc1-c1cc2c(cc1F)c([C@H](NS(=O)(=O)C1CC1)C(F)F)cn2CC(C)(C)C` [Compound 95, (S)—N-(2,2-difluoro-1-(5-fluoro-6-(5-fluoro-2-methylpyridin-3-yl)-1-neopentyl-1H-indol-3-yl)ethyl)cyclopropanesulfonamide] was run?
A: The EC50 was under 100 nM.

Q: With `O=S(=O)(N[C@@H](c1cn(C2COC2)c2nc(-c3ccc(F)cc3C(F)(F)F)c(F)cc12)C(F)F)C1CC1` [Compound 177, (S)—N-(2,2-difluoro-1-(5-fluoro-6-(4-fluoro-2-(trifluoromethyl)phenyl)-1-(oxetan-3-yl)-1H-pyrrolo[2,3-b]pyridin-3-yl)ethyl)cyclopropanesulfonamide] as the compound, how does the EC50 read?
A: Its EC50 is 100 to 1000 nM.

Q: With `CC(C)(C)Cn1cc([C@H](NS(=O)(=O)C2CC2)C(F)F)c2ccc(-c3ccc(=O)[nH]c3C(F)(F)F)cc21` [Compound 166, (S)—N-(2,2-difluoro-1-(1-neopentyl-6-(6-oxo-2-(trifluoromethyl)-1,6-dihydropyridin-3-yl)-1H-indol-3-yl)ethyl)cyclopropanesulfonamide] as the compound, how does the EC50 read?
A: Its EC50 is under 100 nM.

Q: How did the EC50 turn out when `CC(NS(=O)(=O)C1CC1)c1cn(CC(C)(C)C)c2cc(-c3ccc(F)cn3)c(F)cc12` (stereo not shown) [Compound 64, N-(1-(5-fluoro-6-(5-fluoropyridin-2-yl)-1-neopentyl-1H-indol-3-yl)ethyl)cyclopropanesulfonamide] was run?
A: The EC50 was 100 to 1000 nM.

Q: Which EC50 does the source give for `CC(C)(C)Cn1cc([C@H](NS(=O)(=O)C2CC2)C(F)F)c2ccc(-c3cnccc3C(F)(F)F)cc21` [Compound 79, (S)—N-(2,2-difluoro-1-(1-neopentyl-6-(4-(trifluoromethyl)pyridin-3-yl)-1H-indol-3-yl)ethyl)cyclopropanesulfonamide] here?
A: The EC50 was under 100 nM.

Q: `CN(C)S(=O)(=O)N[C@@H](c1cn(CC(C)(C)C)c2cc(-c3nccnc3C(F)(F)F)ccc12)C(F)F` [Compound 51] was tested. Which EC50 did it give?
A: Its EC50 is under 100 nM.

Q: For `COc1cccc(C#N)c1-c1ccc2c([C@H](NS(=O)(=O)C3CC3)C(F)(F)F)cn(CC(C)(C)C)c2c1` [Compound 7, (S)—N-(1-(6-(2-cyano-6-methoxyphenyl)-1-neopentyl-1H-indol-3-yl)-2,2,2-trifluoroethyl)cyclopropanesulfonamide], which EC50 is on record?
A: Its EC50 is 100 to 1000 nM.

Q: How did the EC50 turn out when `CC(C)(C)Cn1cc([C@H](NS(=O)(=O)C2CC2)C(F)F)c2ccc(-c3ncc(F)cc3C(F)(F)F)cc21` [Compound 53, (S)—N-(2,2-difluoro-1-(6-(5-fluoro-3-(trifluoromethyl)pyridin-2-yl)-1-neopentyl-1H-indol-3-yl)ethyl)cyclopropanesulfonamide] was run?
A: The EC50 was under 100 nM.

Q: How did the EC50 turn out when `CC(NS(=O)(=O)C1CC1)c1cn(CC(C)(C)C)c2cc(-c3ncccc3C#N)c(F)cc12` (single isomer, unassigned) [Compound 19, (R or S)—N-(1-(6-(3-cyanopyridin-2-yl)-5-fluoro-1-neopentyl-1H-indol-3-yl)ethyl)cyclopropanesulfonamide] was run?
A: Its EC50 is under 100 nM.

Q: For `CC(C)(C)Cn1cc([C@H](NS(=O)(=O)C2CC2)C(F)F)c2ccc(-c3ncccc3C(F)(F)F)cc21` [Compound 39, (S)—N-(2,2-difluoro-1-(1-neopentyl-6-(3-(trifluoromethyl)pyridin-2-yl)-1H-indol-3-yl)ethyl)cyclopropanesulfonamide], which EC50 is on record?
A: The EC50 was under 100 nM.

Q: Which EC50 does the source give for `CC(C)(C)Cn1cc([C@H](NS(=O)(=O)C2CC2)C(F)F)c2ccc(-c3cccnc3C#N)cc21` [Compound 49, (S)—N-(1-(6-(2-cyanopyridin-3-yl)-1-neopentyl-1H-indol-3-yl)-2,2-difluoroethyl)cyclopropanesulfonamide] here?
A: The EC50 was under 100 nM.

Q: With `CC(NS(=O)(=O)C1CC1)c1cn(CC(C)(C)C)c2cc(C3CCOCC3)c(F)cc12` (stereo not shown) [Compound 35] as the compound, how does the EC50 read?
A: The EC50 was under 100 nM.

Q: `CC(NS(=O)(=O)C1CC1)c1cn(CC(C)(C)C)c2cc(-c3cnccc3Cl)c(F)cc12` (stereo not shown) [Compound 73, N-[1-[6-(4-chloro-3-pyridyl)-1-(2,2-dimethylpropyl)-5-fluoro-indol-3-yl]ethyl]cyclopropanesulfonamide] was tested. Which EC50 did it give?
A: The EC50 was under 100 nM.

Q: For `CC(C)(C)Cn1cc([C@H](NS(=O)(=O)C2CC2)C(F)F)c2cc(F)c(-c3cccnc3C(F)F)cc21` [Compound 97, (S)—N-(1-(6-(2-(difluoromethyl)pyridin-3-yl)-5-fluoro-1-neopentyl-1H-indol-3-yl)-2,2-difluoroethyl)cyclopropanesulfonamide], which EC50 is on record?
A: The EC50 was under 100 nM.

Q: With `CC(NS(=O)(=O)C1CC1)c1cn(CC(C)(C)C)c2cc(-c3cccnc3C(F)(F)F)c(F)cc12` (single isomer, unassigned) [Compound 28, N-[1-[1-(2,2-dimethylpropyl)-5-fluoro-6-[2-(trifluoromethyl)-3-pyridyl]indol-3-yl]ethyl]cyclopropanesulfonamide] as the compound, how does the EC50 read?
A: The EC50 was under 100 nM.

Q: With `CC(C)(C)Cn1cc([C@H](NS(=O)(=O)C2CC2)C(F)F)c2cc(F)c(-c3ccc(F)cc3C(F)F)cc21` [Compound 117, (S)—N-(1-(6-(2-(difluoromethyl)-4-fluorophenyl)-5-fluoro-1-neopentyl-1H-indol-3-yl)-2,2-difluoroethyl)cyclopropanesulfonamide] as the compound, how does the EC50 read?
A: The EC50 was under 100 nM.

Q: Which EC50 does the source give for `CC(NS(=O)(=O)C1CC1)c1cn(CC(C)(C)C)c2cc(-c3cccnc3C(F)F)c(F)cc12` (stereo not shown) [Compound 65, N-(1-(6-(2-(difluoromethyl)pyridin-3-yl)-5-fluoro-1-neopentyl-1H-indol-3-yl)ethyl)cyclopropanesulfonamide] here?
A: Its EC50 is under 100 nM.

Q: `CC(NS(=O)(=O)C1CC1)c1cn(CC(C)(C)C)c2cc(C3CCOCC3)ccc12` (single isomer, unassigned) [Compound 23, (R or S) N-(1-(1-neopentyl-6-(tetrahydro-2H-pyran-4-yl)-1H-indol-3-yl)ethyl)cyclopropanesulfonamide] was tested. Which EC50 did it give?
A: The EC50 was under 100 nM.

Q: How did the EC50 turn out when `Cc1ccnc(C(F)F)c1-c1cc2c(cc1F)c([C@H](NS(=O)(=O)C1CC1)C(F)F)cn2CC(C)(C)C` [Compound 127, N-((1S)-1-(6-(2-(difluoromethyl)-4-methylpyridin-3-yl)-5-fluoro-1-neopentyl-1H-indol-3-yl)-2,2-difluoroethyl)cyclopropanesulfonamide] was run?
A: The EC50 was under 100 nM.

Q: How did the EC50 turn out when `CC(NS(=O)(=O)C1CC1)c1cn(CC(C)(C)C)c2cc(-c3cnccc3C#N)c(F)cc12` (single isomer, unassigned) [Compound 33, (S or R) N-(1-(6-(4-cyanopyridin-3-yl)-5-fluoro-1-neopentyl-1H-indol-3-yl)ethyl)cyclopropanesulfonamide] was run?
A: The EC50 was 100 to 1000 nM.

Q: `CC(C)(C)Cn1cc([C@H](NS(=O)(=O)C2CC2)C(F)F)c2ccc(-c3c[n+]([O-])ccc3C(F)(F)F)cc21` [Compound 107, (S)-3-(3-(1-(cyclopropanesulfonamido)-2,2-difluoroethyl)-1-neopentyl-1H-indol-6-yl)-4-(trifluoromethyl)pyridine 1-oxide] was tested. Which EC50 did it give?
A: Its EC50 is under 100 nM.

Q: With `Cc1cnc(C(F)(F)F)c(-c2nc3c(cc2F)c([C@H](NS(=O)(=O)C2CC2)C(F)F)cn3C2CCC2)c1` [Compound 157, (S)—N-(1-(1-cyclobutyl-5-fluoro-6-(5-methyl-2-(trifluoromethyl)pyridin-3-yl)-1H-pyrrolo[2,3-b]pyridin-3-yl)-2,2-difluoroethyl)cyclopropanesulfonamide] as the compound, how does the EC50 read?
A: Its EC50 is under 100 nM.

Q: For `CC(NS(=O)(=O)C1CC1)c1cn(CC(C)(C)C)c2cc(C3CCOC3)c(F)cc12` (stereo not shown) [Compound 34, N-(1-(5-fluoro-1-neopentyl-6-(tetrahydrofuran-3-yl)-1H-indol-3-yl)ethyl)cyclopropanesulfonamide], which EC50 is on record?
A: The EC50 was under 100 nM.

Q: How did the EC50 turn out when `CC(C)(C)Cn1cc([C@H](NS(=O)(=O)C2CC2)C(F)F)c2ccc(-c3c(C(F)(F)F)ccnc3C#N)cc21` [Compound 82, (S)—N-(1-(6-(2-cyano-4-(trifluoromethyl)pyridin-3-yl)-1-neopentyl-1H-indol-3-yl)-2,2-difluoroethyl)cyclopropanesulfonamide] was run?
A: The EC50 was under 100 nM.

Q: With `CC(C)(C)Cn1cc([C@H](NS(=O)(=O)C2CC2)C(F)F)c2cc(F)c(C3=CCOCC3)cc21` [Compound 16, (S)—N-(1-(6-(3,6-dihydro-2H-pyran-4-yl)-5-fluoro-1-neopentyl-1H-indol-3-yl)-2,2-difluoroethyl)cyclopropanesulfonamide] as the compound, how does the EC50 read?
A: The EC50 was under 100 nM.

Q: With `CC(C)(C)Cn1cc([C@H](NS(=O)(=O)C2CC2)C(F)F)c2cc(F)c(-c3cc(Cl)cnc3C(F)(F)F)cc21` [Compound 143, (S)—N-(1-(6-(5-chloro-2-(trifluoromethyl)pyridin-3-yl)-5-fluoro-1-neopentyl-1H-indol-3-yl)-2,2-difluoroethyl)cyclopropanesulfonamide] as the compound, how does the EC50 read?
A: Its EC50 is under 100 nM.
